From article PMC9015904 (ChemMedChem, 2022)
pEC50, pKd: −log10 of the molar value. Marks after values point to notes of the source that are not given here.

Tests used:
hMOR [1] = target: T1, hMOR (Homo sapiens, UniProt P35372); experiment: GTPγS functional assay, MOR; type: biochemical
hKOR [2] = target: T2, hKOR (Homo sapiens, UniProt P41145); experiment: biochemical; type: biochemical
hMOR [3] = target: T1, hMOR; experiment: biochemical; type: binding
hKOR [4] = target: T2, hKOR; experiment: biochemical; type: binding

T1 sequence (P35372 whole entry): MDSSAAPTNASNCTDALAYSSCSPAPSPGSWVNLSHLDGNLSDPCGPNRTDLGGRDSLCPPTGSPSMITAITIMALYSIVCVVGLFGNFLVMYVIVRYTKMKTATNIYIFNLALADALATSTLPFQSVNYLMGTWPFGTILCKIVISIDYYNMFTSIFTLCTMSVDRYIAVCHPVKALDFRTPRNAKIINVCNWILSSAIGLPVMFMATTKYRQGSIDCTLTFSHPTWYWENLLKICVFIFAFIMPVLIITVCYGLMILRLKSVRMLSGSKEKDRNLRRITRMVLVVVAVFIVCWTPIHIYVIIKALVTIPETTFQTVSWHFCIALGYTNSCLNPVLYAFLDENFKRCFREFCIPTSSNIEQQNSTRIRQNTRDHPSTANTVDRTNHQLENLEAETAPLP
T2 sequence (P41145 whole entry): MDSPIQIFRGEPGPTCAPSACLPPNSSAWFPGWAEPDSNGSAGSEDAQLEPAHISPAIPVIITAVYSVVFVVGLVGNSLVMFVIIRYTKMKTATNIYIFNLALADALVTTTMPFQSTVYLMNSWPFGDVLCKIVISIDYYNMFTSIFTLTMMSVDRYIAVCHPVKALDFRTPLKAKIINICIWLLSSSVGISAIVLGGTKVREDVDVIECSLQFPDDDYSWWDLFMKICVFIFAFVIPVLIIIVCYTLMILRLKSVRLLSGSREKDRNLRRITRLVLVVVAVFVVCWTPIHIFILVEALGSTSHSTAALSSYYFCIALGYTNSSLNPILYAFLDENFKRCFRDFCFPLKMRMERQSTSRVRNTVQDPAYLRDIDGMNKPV

Structure (SMILES) | pEC50 (hMOR [1]) | pEC50 (hKOR [2]) | Full or partial agonist (KOR) (hKOR [2]) | pKd (hMOR [3]) | pKd (hKOR [4]) | binding affinity towards MOR, in words (hMOR [3]) | fold preference towards MOR (binding affinity, MOR vs KOR) (hMOR [3]) [fold] | binding affinity towards KOR, in words (hKOR [4])
COC(=O)[C@@H]1C[C@H](OC(=O)c2cc3ccc(F)cc3[nH]2)C(=O)[C@H]2[C@@]1(C)CC[C@H]1C(=O)O[C@H](c3ccoc3)C[C@]21C [Compound 9, (2S,4aR,6aR,7R,9S,10aS,10bR)-2-(furan-3-yl)-7-(methoxycarbonyl)-6a,10b-dimethyl-4,10-dioxododecahydro-2H-benzo[f]isochromen-9-yl 6-fluoro-1H-indole-2-carboxylate] | 6.01 | 6.38 | 419 (240–729)^[c] | 7.40 | 7.77 |  |  | 
COC(=O)[C@@H]1C[C@H](OC(=O)c2nc3ccccc3[nH]2)C(=O)[C@H]2[C@@]1(C)CC[C@H]1C(=O)O[C@H](c3ccoc3)C[C@]21C [Compound 6, (2S,4aR,6aR,7R,9S,10aS,10bR)-2-(furan-3-yl)-7-(methoxycarbonyl)-6a,10b-dimethyl-4,10-dioxododecahydro-2H-benzo[f]isochromen-9-yl 1H-benzo[d]imidazole-2-carboxylate] | < 5.00 |  |  | 7.08 |  | exhibited selective affinity towards MOR |  | 
COC(=O)[C@@H]1C[C@H](OC(=O)[C@H]2Cc3ccccc3N2)C(=O)[C@H]2[C@@]1(C)CC[C@H]1C(=O)O[C@H](c3ccoc3)C[C@]21C [Compound 13, (2S,4aR,6aR,7R,9S,10aS,10bR)-2-(furan-3-yl)-7-(methoxycarbonyl)-6a,10b-dimethyl-4,10-dioxododecahydro-2H-benzo[f]isochromen-9-yl (R)-indoline-2-carboxylate] | 6.08 | 5.65 | 2260 (1360–3760)^[c] | 8.04 | 6.89 |  | 14 | 
COC(=O)[C@@H]1C[C@H](OC(=O)c2nc3ccccc3s2)C(=O)[C@H]2[C@@]1(C)CC[C@H]1C(=O)O[C@H](c3ccoc3)C[C@]21C [Compound 11, (2S,4aR,6aR,7R,9S,10aS,10bR)-2-(furan-3-yl)-7-(methoxycarbonyl)-6a,10b-dimethyl-4,10-dioxododecahydro-2H-benzo[f]isochromen-9-yl benzo[d]thiazole-2-carboxylate] |  | 6.53 | 294 (179–482)^[d] |  | 7.04 |  |  | exhibited selective affinity towards KOR
COC(=O)[C@@H]1C[C@H](OC(=O)c2n[nH]c3ccccc23)C(=O)[C@H]2[C@@]1(C)CC[C@H]1C(=O)O[C@H](c3ccoc3)C[C@]21C [Compound 5, (2S,4aR,6aR,7R,9S,10aS,10bR)-2-(furan-3-yl)-7-(methoxycarbonyl)-6a,10b-dimethyl-4,10-dioxododecahydro-2H-benzo[f]isochromen-9-yl 1H-indazole-3-carboxylate] | < 5.00 |  |  | 6.68 |  |  |  | 
COC(=O)[C@@H]1C[C@H](OC(=O)C2=CCc3ccccc32)C(=O)[C@H]2[C@@]1(C)CC[C@H]1C(=O)O[C@H](c3ccoc3)C[C@]21C [Compound 1, Methyl-(2S,4aR,6aR,7R,9S,10aS,10bR)-9-((1H-indene-3-carbonyl)oxy)-2-(furan-3-yl)-6a,10b-dimethyl-4,10-dioxododecahydro-2H-benzo[f]isochromene-7-carboxylate] | < 5.00 | 5.80 | 1570 (548–4500)^[c] | 6.27 | 7.21 |  |  | 
COC(=O)[C@@H]1C[C@H](OC(=O)c2cc3cc(F)ccc3[nH]2)C(=O)[C@H]2[C@@]1(C)CC[C@H]1C(=O)O[C@H](c3ccoc3)C[C@]21C [Compound 8, (2S,4aR,6aR,7R,9S,10aS,10bR)-2-(furan-3-yl)-7-(methoxycarbonyl)-6a,10b-dimethyl-4,10-dioxododecahydro-2H-benzo[f]isochromen-9-yl 5-fluoro-1H-indole-2-carboxylate] |  | 5.95 | 1110 (441–2790)^[c] |  | 7.01 | loss of binding affinity to MOR |  | 
